Measured values published in patent publication US20190233884A1 (University of Southern California, priority 2016, published 2019).

Test system: patients with refractory metastatic colorectal cancer (mCRC)
Assay: PFS, OS and disease control in the training (evaluation) cohort of refractory mCRC patients receiving TAS-102 (n=52, Japan), by baseline characteristics, SNP genotype and toxicity
Format: in vivo, human
Settings: for Overall Survival Median, months / Progression-Free Survival Median, months / Overall Survival HR / Progression-Free Survival HR / HR for OS / HR for PFS: evaluation cohort
Protocol: All patients underwent the treatment in salvage-line setting. […]
(§1) Genomic DNA was extracted from peripheral whole blood in patients of all cohorts using the QIAmp Kit (Qiagen, Valencia, Calif., USA) according to the manufacturer's protocol (www.qiagen.com). The candidate SNPs were genotyped using PCR-based direct DNA sequence analysis by ABI 3100A Capillary Genetic Analyzer and Sequencing Scanner v1.0 (Applied Biosystems). Amplification of extracted DNA was carried out using both forward and reverse primers for each gene polymorphism as shown in Table 1. […] The investigators analyzing SNPs were blinded to the clinical data of the study patients.
The primary endpoint in this study was progression-free survival (PFS), and the secondary endpoints were overall survival (OS) and disease control rate (DCR). PFS was calculated from the date of starting treatment to the first observation of disease progression or death from any cause. If a patient had no disease progression or death, PFS was censored at the date of last follow up. OS was calculated from the date of starting treatment until the date of death from any cause or the date of the last follow-up, at which point OS was censored. The disease control rate (DCR) was defined as the proportion of patients who achieved a stable disease (SD) or […] according to RECISTv1.1. Chi-square test was used to examine the difference in baseline patient characteristics among the three cohorts. Allelic distribution of all SNPs by ethnicity for deviation from Hardy-Weinberg equilibrium and the allelic frequencies of SNPs were tested using the Chi-square tests with one degree of freedom. The associations between candidate SNPs and disease control, and toxicities were examined using contingency tables and Fisher's exact test. The associations of SNPs with PFS and OS were analysed using Kaplan-Meier curves and the log-rank test. Because the true mode of inheritance of candidate SNPs was not established yet, a codominant or dominant genetic model if appropriate was considered.
All patients underwent the treatment in salvage-line setting. […] In all patients, adverse events were graded according to the Common Terminology Criteria for Adverse Events, version 4.0. […]
as §1, with “tested” for “genotyped”, “Biosystems).” for “Biosystems). Amplification of extracted DNA was carried out using both forward and reverse primers for each gene polymorphism as shown in Table 1.”, “data.” for “data of the study patients.”
The primary endpoint in this study was progression-free survival (PFS), and the secondary endpoints were overall survival (OS) and disease control rate (DCR).

[1] = Performance status ECOG 1 vs ECOG 0, univariate
[2] = Peritoneal No vs Yes, univariate
[3] = Pre-chemo numbers ≥4 vs <4, univariate
[4] = Primary tumor resection No vs Yes, univariate
[5] = Prior EGFR No vs Yes, univariate
[6] = Prior REGORA No vs Yes, univariate
[7] = Prior bev No vs Yes, univariate
[8] = Tumor site Left vs Right, univariate
[9] = XRCC3 rs861539 G/A vs G/G, univariate
[10] = p21 rs1059234 Any C vs T/T, multivariable
[11] = p21 rs1059234 Any C vs T/T, univariate
[12] = p21 rs1059234 C/C vs T/T, multivariable
[13] = p21 rs1059234 C/C vs T/T, univariate
[14] = p21 rs1059234 T/C vs T/T, multivariable
[15] = p21 rs1059234 T/C vs T/T, univariate
[16] = p21 rs1801270 A/C vs A/A, multivariable
[17] = p21 rs1801270 A/C vs A/A, univariate

Q: Trifluridine/tipiracil [TAS-102] was tested. Which “Overall Survival Median, months” value (Number of metastases ≤2) did it give?
A: 8.3 months

Q: And the “Progression-Free Survival Median, months” value (Number of metastases ≤2)?
A: 2.7 months

Q: What about the “Overall Survival Median, months” value (Performance status ECOG 0) of the same substance?
A: 8.7 months

Q: And the “Progression-Free Survival Median, months” value (Performance status ECOG 0)?
A: 2.9 months

Q: What about the “Overall Survival Median, months” value (Performance status ECOG 1) of the same substance?
A: 7.2 months

Q: What about the “Progression-Free Survival Median, months” value (Performance status ECOG 1) of the same substance?
A: 2.7 months

Q: And the “Overall Survival HR” value [1]?
A: 1.42

Q: What about the “Progression-Free Survival HR” value [1] of the same substance?
A: 1.06

Q: And the “Overall Survival Median, months” value (Peritoneal No)?
A: 8.3 months

Q: What about the “Progression-Free Survival Median, months” value (Peritoneal No) of the same substance?
A: 2.3 months

Q: What about the “Overall Survival HR” value [2] of the same substance?
A: 0.84

Q: And the “Progression-Free Survival HR” value [2]?
A: 1.48

Q: What about the “Overall Survival Median, months” value (Peritoneal Yes) of the same substance?
A: 6.3 months

Q: What about the “Progression-Free Survival Median, months” value (Peritoneal Yes) of the same substance?
A: 3.1 months

Q: What about the “Overall Survival Median, months” value (Pre-chemo numbers <4) of the same substance?
A: 8.7 months

Q: And the “Progression-Free Survival Median, months” value (Pre-chemo numbers <4)?
A: 3.0 months

Q: And the “Overall Survival Median, months” value (Pre-chemo numbers ≥4)?
A: 6.3 months

Q: What about the “Progression-Free Survival Median, months” value (Pre-chemo numbers ≥4) of the same substance?
A: 2.1 months

Q: What about the “Overall Survival HR” value [3] of the same substance?
A: 2.48

Q: And the “Progression-Free Survival HR” value [3]?
A: 1.73

Q: And the “Overall Survival Median, months” value (Primary tumor resection No)?
A: 8.1+ months

Q: What about the “Progression-Free Survival Median, months” value (Primary tumor resection No) of the same substance?
A: 2.1 months

Q: What about the “Overall Survival HR” value [4] of the same substance?
A: 1.72

Q: And the “Progression-Free Survival HR” value [4]?
A: 1.39

Q: And the “Overall Survival Median, months” value (Primary tumor resection Yes)?
A: 8.1 months

Q: And the “Progression-Free Survival Median, months” value (Primary tumor resection Yes)?
A: 3.0 months

Q: What about the “Overall Survival Median, months” value (Prior EGFR No) of the same substance?
A: 15.6+ months

Q: What about the “Progression-Free Survival Median, months” value (Prior EGFR No) of the same substance?
A: 3.7 months

Q: And the “Overall Survival HR” value [5]?
A: 0.35

Q: And the “Progression-Free Survival HR” value [5]?
A: 0.49

Q: And the “Overall Survival Median, months” value (Prior EGFR Yes)?
A: 6.3 months

Q: What about the “Progression-Free Survival Median, months” value (Prior EGFR Yes) of the same substance?
A: 2.1 months

Q: And the “Overall Survival Median, months” value (Prior REGORA No)?
A: 14.8+ months

Q: And the “Progression-Free Survival Median, months” value (Prior REGORA No)?
A: 3.7 months

Q: And the “Overall Survival HR” value [6]?
A: 0.50

Q: What about the “Progression-Free Survival HR” value [6] of the same substance?
A: 0.65

Q: And the “Overall Survival Median, months” value (Prior REGORA Yes)?
A: 8.1 months

Q: And the “Progression-Free Survival Median, months” value (Prior REGORA Yes)?
A: 2.1 months

Q: And the “Overall Survival Median, months” value (Prior bev No)?
A: 4.1 months

Q: What about the “Progression-Free Survival Median, months” value (Prior bev No) of the same substance?
A: 2.5 months

Q: What about the “Overall Survival HR” value [7] of the same substance?
A: 3.43

Q: What about the “Progression-Free Survival HR” value [7] of the same substance?
A: 1.86

Q: And the “Overall Survival Median, months” value (Prior bev Yes)?
A: 8.3 months

Q: And the “Progression-Free Survival Median, months” value (Prior bev Yes)?
A: 2.9 months

Q: What about the “Overall Survival Median, months” value (Sex Female) of the same substance?
A: 8.3 months

Q: What about the “Progression-Free Survival Median, months” value (Sex Female) of the same substance?
A: 3.4 months

Q: And the “Overall Survival HR” value (Sex Female vs Male, univariate)?
A: 0.47

Q: What about the “Progression-Free Survival HR” value (Sex Female vs Male, univariate) of the same substance?
A: 0.60

Q: And the “Overall Survival Median, months” value (Sex Male)?
A: 4.9 months

Q: What about the “Progression-Free Survival Median, months” value (Sex Male) of the same substance?
A: 2.1 months

Q: What about the “Overall Survival Median, months” value (Tumor site Left) of the same substance?
A: 8.1 months

Q: What about the “Progression-Free Survival Median, months” value (Tumor site Left) of the same substance?
A: 2.9 months

Q: And the “Overall Survival HR” value [8]?
A: 0.97

Q: What about the “Progression-Free Survival HR” value [8] of the same substance?
A: 1.30

Q: And the “Overall Survival Median, months” value (Tumor site Right)?
A: 8.7 months

Q: And the “Progression-Free Survival Median, months” value (Tumor site Right)?
A: 3.3 months

Q: What about the “HR for OS” value (XRCC3 rs861539, multivariable) of the same substance?
A: 0.31

Q: And the “HR for PFS” value (XRCC3 rs861539, multivariable)?
A: 0.52

Q: And the “HR for OS” value [9]?
A: 0.25

Q: What about the “HR for PFS” value [9] of the same substance?
A: 0.44

Q: And the “OS median, months (95% CI)” value (p21 rs1059234 Any C)?
A: 12.4 (5.4, 15.6+) months

Q: What about the “PFS median, months (95% CI)” value (p21 rs1059234 Any C) of the same substance?
A: 2.7 (2.1, 3.5) months

Q: What about the “OS HR (95% CI)‡” value [10] of the same substance?
A: 0.50 (0.20, 1.25)

Q: What about the “PFS HR (95% CI) ‡” value [10] of the same substance?
A: 0.74 (0.37, 1.49)

Q: And the “OS HR (95% CI)†” value [11]?
A: 0.64 (0.27, 1.56)

Q: And the “PFS HR (95% CI) †” value [11]?
A: 0.88 (0.44, 1.74)

Q: What about the “OS median, months (95% CI)” value (p21 rs1059234 C/C) of the same substance?
A: 6.3 (2.7, 10.7+) months

Q: What about the “PFS median, months (95% CI)” value (p21 rs1059234 C/C) of the same substance?
A: 2.9 (1.6, 4.9) months

Q: What about the “OS HR (95% CI)‡” value [12] of the same substance?
A: 0.67 (0.21, 2.12)

Q: What about the “PFS HR (95% CI) ‡” value [12] of the same substance?
A: 0.73 (0.30, 1.74)

Q: What about the “OS HR (95% CI)†” value [13] of the same substance?
A: 0.76 (0.25, 2.35)

Q: And the “PFS HR (95% CI) †” value [13]?
A: 0.95 (0.42, 2.16)

Q: And the “OS median, months (95% CI)” value (p21 rs1059234 T/C)?
A: 12.4 (5.3, 15.6+) months

Q: And the “PFS median, months (95% CI)” value (p21 rs1059234 T/C)?
A: 2.7 (2.1, 3.5) months

Q: And the “OS HR (95% CI)‡” value [14]?
A: 0.42 (0.15, 1.19)

Q: And the “PFS HR (95% CI) ‡” value [14]?
A: 0.75 (0.35, 1.60)

Q: What about the “OS HR (95% CI)†” value [15] of the same substance?
A: 0.59 (0.22, 1.57)

Q: What about the “PFS HR (95% CI) †” value [15] of the same substance?
A: 0.84 (0.40, 1.76)

Q: And the “OS median, months (95% CI)” value (p21 rs1059234 T/T)?
A: 7.2 (3.3, 8.7) months

Q: And the “PFS median, months (95% CI)” value (p21 rs1059234 T/T)?
A: 3.3 (1.6, 4.1) months

Q: And the “OS median, months (95% CI)” value (p21 rs1801270 A/A)?
A: 7.2 (3.3, 8.7) months

Q: And the “PFS median, months (95% CI)” value (p21 rs1801270 A/A)?
A: 3.3 (1.6, 4.1) months

Q: What about the “OS median, months (95% CI)” value (p21 rs1801270 A/C) of the same substance?
A: 12.4 (5.3, 15.6+) months

Q: And the “PFS median, months (95% CI)” value (p21 rs1801270 A/C)?
A: 2.3 (1.8, 3.5) months

Q: What about the “OS HR (95% CI)‡” value [16] of the same substance?
A: 0.39 (0.13, 1.11)

Q: And the “PFS HR (95% CI) ‡” value [16]?
A: 0.72 (0.34, 1.55)

Q: And the “OS HR (95% CI)†” value [17]?
A: 0.53 (0.19, 1.47)

Q: What about the “PFS HR (95% CI) †” value [17] of the same substance?
A: 0.82 (0.39, 1.74)

Q: And the “OS median, months (95% CI)” value (p21 rs1801270 Any C)?
A: 12.4 (5.4, 15.6+) months

Q: What about the “PFS median, months (95% CI)” value (p21 rs1801270 Any C) of the same substance?
A: 2.7 (2.1, 3.5) months

Q: What about the “OS HR (95% CI)‡” value (p21 rs1801270 Any C vs A/A, multivariable) of the same substance?
A: 0.50 (0.20, 1.25)
